Earlier results on one molecule are cited in patent publication US12521383B2 (Slayback Pharma LLC, priority 2022, dated 2026).

The conditions of this data set: in water, pH independent solubility profile.

The structures appear in SMILES notation.

As for `COc1ccc(-n2nc(C(N)=O)c3c2C(=O)N(c2ccc(N4CCCCC4=O)cc2)CC3)cc1` [apixaban, 1-(4-methoxyphenyl)-7-oxo-6-[4-(2-oxopiperidin-1-yl)phenyl]-4,5-dihydropyrazolo [3,4-c] pyridine-3-carboxamide], the aqueous solubility is 40 to 50 µg/mL.
